According to ChEMBL document CHEMBL4321791, “TASK Channels Pharmacology: New Challenges in Drug Design” (J Med Chem, 2019):
Counter-ions that a name gives are not always drawn. Blank lines part the entries; values can stand above or below the compound they belong to.

What was measured:
[1] = biological target: T1, Potassium channel subfamily K member 9 (Homo sapiens, UniProt Q9NPC2); assay: Activation of human TASK3 expressed in Xenopus oocytes at 1 mM by whole cell patch clamp assay relative to control; type: cell-based
T1 sequence (Q9NPC2 whole entry): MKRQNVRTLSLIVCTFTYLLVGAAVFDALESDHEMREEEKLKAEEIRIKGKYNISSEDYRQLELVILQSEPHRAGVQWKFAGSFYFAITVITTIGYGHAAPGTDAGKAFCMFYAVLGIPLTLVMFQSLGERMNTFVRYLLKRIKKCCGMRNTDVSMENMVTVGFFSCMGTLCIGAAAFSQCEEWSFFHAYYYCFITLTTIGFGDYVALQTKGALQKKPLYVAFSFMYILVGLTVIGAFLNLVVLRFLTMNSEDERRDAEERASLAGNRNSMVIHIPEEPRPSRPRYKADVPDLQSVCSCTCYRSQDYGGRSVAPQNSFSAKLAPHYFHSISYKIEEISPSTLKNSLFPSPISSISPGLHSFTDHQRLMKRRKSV

[2] = biological target: T2, Potassium channel subfamily K member 3 (Homo sapiens, UniProt O14649); assay: Inhibition of human TASK1 expressed in Xenopus oocytes by whole cell voltage clamp assay; type: cell-based
Target sequence in this assay (O14649 whole entry): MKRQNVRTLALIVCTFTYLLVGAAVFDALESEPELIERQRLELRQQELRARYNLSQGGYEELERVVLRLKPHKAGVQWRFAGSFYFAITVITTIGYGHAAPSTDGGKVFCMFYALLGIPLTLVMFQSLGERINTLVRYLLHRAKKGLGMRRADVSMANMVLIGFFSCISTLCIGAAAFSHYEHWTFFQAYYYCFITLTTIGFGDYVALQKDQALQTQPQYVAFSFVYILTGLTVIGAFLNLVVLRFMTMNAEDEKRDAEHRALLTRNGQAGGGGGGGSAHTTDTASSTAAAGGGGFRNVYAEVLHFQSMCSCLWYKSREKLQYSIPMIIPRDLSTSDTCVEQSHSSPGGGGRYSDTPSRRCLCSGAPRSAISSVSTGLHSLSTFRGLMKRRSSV

[3] = biological target: Potassium channel subfamily K member 9 (Rattus norvegicus) (UniProt Q9ES08); assay: Inhibition of rat TASK3 expressed in African green monkey COS7 cells at 1 mM by outside-out patches based electrophysiology assay relative to control; type: cell-based
Potassium channel subfamily K member 9 (Rattus norvegicus), sequence (Q9ES08 whole entry): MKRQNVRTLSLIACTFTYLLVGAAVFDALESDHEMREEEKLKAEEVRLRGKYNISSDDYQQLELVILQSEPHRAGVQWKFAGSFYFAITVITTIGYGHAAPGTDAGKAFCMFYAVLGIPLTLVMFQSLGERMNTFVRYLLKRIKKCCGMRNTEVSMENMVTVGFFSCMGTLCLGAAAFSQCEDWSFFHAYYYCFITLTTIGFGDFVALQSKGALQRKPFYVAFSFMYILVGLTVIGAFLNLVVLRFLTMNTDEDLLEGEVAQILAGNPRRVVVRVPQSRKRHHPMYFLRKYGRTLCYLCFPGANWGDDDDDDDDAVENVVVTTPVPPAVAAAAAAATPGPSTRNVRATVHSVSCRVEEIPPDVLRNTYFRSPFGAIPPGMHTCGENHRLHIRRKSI

[4] = biological target: T2, Potassium channel subfamily K member 3; assay: Inhibition of human TASK1 expressed in African green monkey COS7 cells by whole cell patch clamp assay; type: cell-based
Target sequence in this assay (O14649 whole entry): as the sequence (O14649 whole entry) above

[5] = biological target: T2, Potassium channel subfamily K member 3; assay: Inhibition of human TASK1 expressed in African green monkey COS cells by whole cell patch clamp assay; type: cell-based
Target sequence in this assay (O14649 whole entry): as above

[6] = biological target: T1, Potassium channel subfamily K member 9; assay: Inhibition of human TASK3 expressed in HEK293 cells by Ti+ flux assay; type: cell-based
[7] = biological target: T1, Potassium channel subfamily K member 9; conditions: 1 uM
Description: Inhibition of human TASK3 expressed in Xenopus oocytes at 1 uM by whole cell patch clamp assay relative to control

[8] = biological target: T1, Potassium channel subfamily K member 9; assay: Inhibition of human TASK3 expressed in Xenopus oocytes by whole cell voltage clamp assay; type: cell-based
[9] = biological target: T2, Potassium channel subfamily K member 3; assay: Inhibition of human TASK1 expressed in African green monkey COS cells at 0.6 mM by whole cell patch clamp assay relative to control; type: cell-based
Target sequence in this assay (O14649 whole entry, looked up): as the sequence (O14649 whole entry) above

[10] = biological target: T2, Potassium channel subfamily K member 3; assay: Inhibition of human TASK1 by whole cell voltage clamp assay
Target sequence in this assay (O14649 whole entry): as above

[11] = biological target: T1, Potassium channel subfamily K member 9; assay: Inhibition of human TASK3 expressed in HEK293 by whole cell voltage clamp assay; type: cell-based
[12] = biological target: T1, Potassium channel subfamily K member 9; assay: Inhibition of human TASK3 expressed in CHOK1 cells by Ti+ flux assay; type: cell-based
[13] = biological target: T3, Potassium channel subfamily K member 9 (Rattus norvegicus, UniProt Q9ES08); assay: Inhibition of rat TASK3 expressed in (FRT) epithelial cells by chamber based electrophysiology assay; type: cell-based
T3 sequence (Q9ES08 whole entry): as the sequence (Q9ES08 whole entry) above

[14] = biological target: T4, Potassium channel subfamily K member 17 (Homo sapiens, UniProt Q96T54); assay: Inhibition of human TASK4 expressed in CHO cells by Inside-out macro-patches based electrophysiology assay; type: cell-based
T4 sequence (Q96T54 whole entry): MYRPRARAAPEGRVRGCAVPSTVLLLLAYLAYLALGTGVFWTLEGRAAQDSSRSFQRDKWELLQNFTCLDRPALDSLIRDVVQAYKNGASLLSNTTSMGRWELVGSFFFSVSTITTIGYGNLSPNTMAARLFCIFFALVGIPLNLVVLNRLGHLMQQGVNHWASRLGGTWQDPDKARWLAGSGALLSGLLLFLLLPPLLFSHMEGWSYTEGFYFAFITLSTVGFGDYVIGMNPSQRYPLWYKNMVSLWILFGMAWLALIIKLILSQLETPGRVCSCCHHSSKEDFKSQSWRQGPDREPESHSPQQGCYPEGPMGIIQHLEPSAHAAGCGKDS

[15] = biological target: T5, Potassium channel subfamily K member 5 (Homo sapiens, UniProt O95279); assay: Inhibition of human TASK2 expressed in CHO cells by Inside-out macro-patches based electrophysiology assay; type: cell-based
T5 sequence (O95279 whole entry): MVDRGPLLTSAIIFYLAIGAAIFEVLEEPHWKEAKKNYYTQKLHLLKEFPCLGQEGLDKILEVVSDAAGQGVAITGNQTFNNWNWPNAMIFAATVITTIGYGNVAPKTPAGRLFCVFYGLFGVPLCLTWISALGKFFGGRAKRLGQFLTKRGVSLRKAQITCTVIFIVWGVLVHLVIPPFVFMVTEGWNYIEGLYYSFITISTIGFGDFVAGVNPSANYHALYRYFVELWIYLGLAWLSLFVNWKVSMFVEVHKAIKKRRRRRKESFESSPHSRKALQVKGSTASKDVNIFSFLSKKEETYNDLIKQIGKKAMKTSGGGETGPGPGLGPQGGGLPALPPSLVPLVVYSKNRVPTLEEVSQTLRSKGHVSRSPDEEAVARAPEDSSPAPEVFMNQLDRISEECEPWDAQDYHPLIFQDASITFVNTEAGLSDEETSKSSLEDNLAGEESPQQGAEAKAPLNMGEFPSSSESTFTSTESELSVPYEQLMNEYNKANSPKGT

[16] = biological target: T1, Potassium channel subfamily K member 9; assay: Inhibition of human TASK3 expressed in CHO cells by Inside-out macro-patches based electrophysiology assay; type: cell-based
Homo sapiens = species on record: Homo sapiens; assay: Selectivity index, ratio of IC50 for Kv1.5 channel (unknown origin) to IC50 for inhibition of human TASK1 expressed in Xenopus oocytes by whole cell voltage clamp assay; type: cell-based
[17] = biological target: T2, Potassium channel subfamily K member 3; assay: Activation of human TASK1 expressed in African green monkey COS cells at 1 mM by whole cell patch clamp assay relative to control; type: cell-based
Target sequence in this assay (O14649 whole entry, looked up): as the sequence (O14649 whole entry) above

[18] = biological target: T2, Potassium channel subfamily K member 3; assay: Activation of human TASK1 expressed in African green monkey COS cells at 0.1 to 1 mM by whole cell patch clamp assay relative to control; type: cell-based
Target sequence in this assay (O14649 whole entry, looked up): as the sequence (O14649 whole entry) above

[19] = biological target: T6, Potassium channel subfamily K member 3 (Rattus norvegicus, UniProt O54912); assay: Inhibition of rat TASK1 expressed in Xenopus oocytes by whole cell voltage clamp assay; type: cell-based
T6 sequence (O54912 whole entry): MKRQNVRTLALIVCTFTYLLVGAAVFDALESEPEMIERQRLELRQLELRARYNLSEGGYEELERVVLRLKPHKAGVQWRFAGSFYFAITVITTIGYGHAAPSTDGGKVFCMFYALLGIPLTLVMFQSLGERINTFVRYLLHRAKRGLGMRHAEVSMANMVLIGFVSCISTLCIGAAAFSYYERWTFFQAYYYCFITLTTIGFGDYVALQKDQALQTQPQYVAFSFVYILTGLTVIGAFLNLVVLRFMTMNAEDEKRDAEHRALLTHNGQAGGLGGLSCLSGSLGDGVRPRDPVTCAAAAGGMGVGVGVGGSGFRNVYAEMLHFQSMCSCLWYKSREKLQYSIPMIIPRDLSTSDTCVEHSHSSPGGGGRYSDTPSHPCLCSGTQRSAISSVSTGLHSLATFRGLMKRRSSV

[20] = biological target: T3, Potassium channel subfamily K member 9; assay: Inhibition of rat TASK3 expressed in Xenopus oocytes by whole cell voltage clamp assay; type: cell-based
[21] = biological target: T2, Potassium channel subfamily K member 3; assay: Activation of human TASK1 expressed in African green monkey COS cells at 2 mM by whole cell patch clamp assay relative to control; type: cell-based
Target sequence in this assay (O14649 whole entry, looked up): as the sequence (O14649 whole entry) above

[22] = biological target: T1, Potassium channel subfamily K member 9; assay: Activation of human TASK3 expressed in human tsA201 cells at 1 uM by whole cell patch clamp assay relative to control; type: cell-based
[23] = biological target: Potassium channel subfamily K member 9 (Rattus norvegicus) (UniProt Q9ES08); assay: Inhibition of rat TASK3 expressed in African green monkey COS7 cells at 100 uM by outside-out patches based electrophysiology assay relative to control; type: cell-based
[24] = biological target: T6, Potassium channel subfamily K member 3; assay: Inhibition of rat TASK1 expressed in African green monkey COS7 cells by outside-out patches based electrophysiology assay; type: cell-based
[25] = biological target: T3, Potassium channel subfamily K member 9; assay: Inhibition of rat TASK3 expressed in African green monkey COS7 cells by outside-out patches based electrophysiology assay; type: cell-based

Activity [1]: 7.7%
SMILES: [Cl-].[Cs+]

IC50 [2]: 222 µM
inhibition [3]: 62%
SMILES: CCN(CC)CC(=O)Nc1c(C)cccc1C [LIDOCAINE]

IC50 [2]: 0.6 µM
SMILES: COc1ccc(CC(=O)NCc2ccccc2-c2ccccc2C(=O)NCCc2cccnc2)cc1

SMILES: CCCCC/C=C\C/C=C\C/C=C\C/C=C\CCCC(=O)NCCO [ANANDAMIDE]
IC50 [4]: 3 µM

SMILES: CCCCC/C=C\C/C=C\C/C=C\C/C=C\CCCC(=O)N[C@H](C)CO [METHANANDAMIDE]
IC50 [5]: 0.1 µM

IC50 [2]: 53 µM
SMILES: CCCN1CCCC[C@H]1C(=O)Nc1c(C)cccc1C [ROPIVACAINE]

IC50 [2]: 1.05 µM
SMILES: CCc1ccc(S(=O)(=O)NC2c3cc(NC(=O)c4cccc(OC)c4)ccc3CC2O)cc1 (stereo not given)

IC50 [2]: 83.5 µM
SMILES: CCOC(=O)c1cc(C)n2c1-c1cc(OC)c(OC)cc1CC2

IC50 [2]: 51 µM
SMILES: CCCN1CCCC[C@@H]1C(=O)Nc1c(C)cccc1C

SMILES: CC[C@@H]1/C=C/C=C/C[C@H](C)[C@@H](O)[C@](C)(O)C(=O)[C@H](C)[C@@H](O)[C@H](C)C(=O)[C@H](C)[C@@H](O)[C@H](C)/C=C/C(=O)O[C@H]2[C@@H](C)[C@@H](CC1)O[C@@]1(CC[C@@H](C)[C@@H](C[C@H](C)O)O1)[C@@H]2C
IC50 [6]: 47.7 µM

inhibition [7]: 6.1%
SMILES: CC[N+](CC)(CC)CC

IC50 [8]: 268 µM
SMILES: CCOC(=O)c1c(-c2cccc(N)c2)c(C)n2c1-c1cc(OC)c(OC)cc1CC2

IC50 ([6]; hek293): 24.6 µM
SMILES: COCC(=O)O[C@]1(CCN(C)CCCc2nc3ccccc3[nH]2)CCc2cc(F)ccc2[C@@H]1C(C)C [MIBEFRADIL DIHYDROCHLORIDE]

SMILES: CCOCC
inhibition [9]: 40%

IC50 [2]: 0.2 µM
SMILES: O=C(NCc1ccccc1-c1ccccc1C(=O)NCCc1ccccn1)OCc1ccccc1

IC50 ([6]; hek293): 63.4 µM
SMILES: CCOC(=O)N1CCC(=C2c3ccc(Cl)cc3CCc3cccnc32)CC1 [LORATADINE]

IC50 [8]: 189 µM
SMILES: COc1cc2c(cc1OC)-c1c(C#N)c(-c3ccccc3)c(C)n1CC2

IC50 [10]: 3.2 µM
IC50 [11]: 0.413 µM
SMILES: CC(C1CC2CCC1C2)n1c(S)nnc1-c1ccco1 (stereo not given)

fold change (FC) [12]: 6
SMILES: O=C(NCCNc1ccc([N+](=O)[O-])cc1C(F)(F)F)c1ccccc1

IC50 [13]: 0.036 µM
IC50 [14]: 8.1 µM
IC50 [15]: 12 µM
IC50 [16]: 0.07 µM
IC50 [2]: 0.035 µM
IC50 [8]: 0.318 µM
SMILES: COc1ccc(CC(=O)NCc2ccccc2-c2ccccc2C(=O)NCc2ccc(F)cc2F)cc1
Ratio IC50 (Homo sapiens): 68

Activity [1]: 65.6%
Activity [17]: 60%
Activity [18]: > 60%
SMILES: FC(F)(F)C(Cl)Br (stereo not given)

IC50 [6]: 73.8 µM
SMILES: CN1CCN(C2Cc3ccccc3Sc3ccc(Cl)cc32)CC1 (racemic)

IC50 [6]: 50.1 µM
SMILES: CN(C)c1cc2c(Nc3ccc4c(cnn4Cc4ccccc4)c3)ncnc2cn1 [GW282974X]

IC50 [2]: 96.7 µM
SMILES: CCOC(=O)c1c(-c2cccs2)c(C)n2c1-c1cc(OC)c(OC)cc1CC2

IC50 [13]: 16 µM
IC50 [19]: 0.41 µM
IC50 [20]: 37 µM
SMILES: CCN1CC(CCN2CCOCC2)C(c2ccccc2)(c2ccccc2)C1=O (stereo not given) [DOXAPRAM]

IC50 [13]: 0.01 µM
SMILES: CCCC(=O)C1CCN(c2ncnc3c2CN(C(=O)c2ccc(-c4ccccc4)cc2)CC3)CC1

SMILES: Ic1ccccc1CN[C@@H]1C2CCN(CC2)[C@@H]1C(c1ccccc1)c1ccccc1
IC50 [6]: 45.5 µM

IC50 ([6]; hek293): 73.8 µM
SMILES: CN1CCN(C2Cc3ccccc3Sc3ccc(Cl)cc32)CC1 (stereo not given) [CLOROTEPINE]

IC50 [2]: 39 µM
SMILES: CCCN(CC)C(CC)C(=O)Nc1c(C)cccc1C (stereo not given) [ETIDOCAINE]

Activity [21]: 25%
SMILES: FC(F)OC(Cl)C(F)(F)F (stereo not given)

IC50 [2]: 709 µM
SMILES: Cc1cccc(C)c1NC(=O)C1CCCCN1C (stereo not given) [MEPIVACAINE]

Activity [22]: 30%
SMILES: CN(C/C=C/C#CC(C)(C)C)Cc1cccc2ccccc12

IC50 [2]: 0.35 µM
SMILES: COc1ccc(-n2nc(Sc3ccc(C)cc3)c(C)c(C#N)c2=O)cc1

SMILES: CC[C@H](C)C(=O)O[C@H]1CCC=C2C=C[C@H](C)[C@H](CC[C@@H]3C[C@@H](O)CC(=O)O3)[C@H]21 [MEVASTATIN]
IC50 [6]: 159 µM

IC50 [2]: 0.222 µM
IC50 [8]: 0.95 µM
IC50 [10]: 0.22 µM
SMILES: CCCCS(=O)(=O)Nc1ccccc1C(=O)NC(CC)c1ccc(OC)nc1 (stereo not given)

IC50 [2]: 668 µM
SMILES: CCCCNc1ccc(C(=O)OCCN(C)C)cc1 [TETRACAINE]

inhibition [23]: 37%
SMILES: C=C[C@H]1CN2CC[C@H]1C[C@@H]2[C@@H](O)c1ccnc2ccc(OC)cc12

IC50 [2]: 41 µM
inhibition [23]: 56%
IC50 [24]: 41 to 68 µM
IC50 [25]: 100 µM
SMILES: CCCCN1CCCCC1C(=O)Nc1c(C)cccc1C (stereo not given) [BUPIVACAINE]
